The target of this test is Sucrase-isomaltase, intestinal (Rattus norvegicus, UniProt P23739). Kind of test: Inhibition of rat intestinal sucrase.

One may read the IC50 as the concentration that inhibits the measured activity by half.

Chain of Sucrase-isomaltase, intestinal (P23739 1-1013 limits assumed): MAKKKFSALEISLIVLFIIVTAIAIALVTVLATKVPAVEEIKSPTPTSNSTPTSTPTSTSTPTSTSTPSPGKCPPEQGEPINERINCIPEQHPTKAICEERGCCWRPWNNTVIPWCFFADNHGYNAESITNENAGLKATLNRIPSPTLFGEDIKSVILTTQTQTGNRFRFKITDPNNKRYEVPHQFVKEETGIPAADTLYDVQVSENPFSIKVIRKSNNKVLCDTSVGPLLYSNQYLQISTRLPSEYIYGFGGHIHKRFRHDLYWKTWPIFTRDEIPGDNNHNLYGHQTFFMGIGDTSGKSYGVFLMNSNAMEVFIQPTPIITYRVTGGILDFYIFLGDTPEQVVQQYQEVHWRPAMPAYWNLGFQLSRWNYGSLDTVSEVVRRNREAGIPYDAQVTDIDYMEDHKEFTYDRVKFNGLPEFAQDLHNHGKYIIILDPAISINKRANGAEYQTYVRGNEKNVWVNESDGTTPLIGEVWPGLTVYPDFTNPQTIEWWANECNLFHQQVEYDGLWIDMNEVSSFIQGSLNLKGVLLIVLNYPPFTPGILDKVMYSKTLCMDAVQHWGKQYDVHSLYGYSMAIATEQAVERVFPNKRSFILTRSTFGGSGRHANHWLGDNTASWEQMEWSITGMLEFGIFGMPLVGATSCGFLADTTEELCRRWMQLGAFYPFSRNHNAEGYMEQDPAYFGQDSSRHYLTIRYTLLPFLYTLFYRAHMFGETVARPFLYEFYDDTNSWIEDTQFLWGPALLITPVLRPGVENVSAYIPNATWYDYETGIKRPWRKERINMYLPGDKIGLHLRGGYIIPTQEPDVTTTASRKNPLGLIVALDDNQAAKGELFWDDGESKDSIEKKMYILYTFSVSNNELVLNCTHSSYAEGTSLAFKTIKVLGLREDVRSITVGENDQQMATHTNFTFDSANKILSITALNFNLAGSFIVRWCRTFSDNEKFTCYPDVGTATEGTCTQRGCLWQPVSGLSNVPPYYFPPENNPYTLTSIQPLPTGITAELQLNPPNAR
Chain of Sucrase-isomaltase, intestinal (P23739 1014-1841 limits assumed): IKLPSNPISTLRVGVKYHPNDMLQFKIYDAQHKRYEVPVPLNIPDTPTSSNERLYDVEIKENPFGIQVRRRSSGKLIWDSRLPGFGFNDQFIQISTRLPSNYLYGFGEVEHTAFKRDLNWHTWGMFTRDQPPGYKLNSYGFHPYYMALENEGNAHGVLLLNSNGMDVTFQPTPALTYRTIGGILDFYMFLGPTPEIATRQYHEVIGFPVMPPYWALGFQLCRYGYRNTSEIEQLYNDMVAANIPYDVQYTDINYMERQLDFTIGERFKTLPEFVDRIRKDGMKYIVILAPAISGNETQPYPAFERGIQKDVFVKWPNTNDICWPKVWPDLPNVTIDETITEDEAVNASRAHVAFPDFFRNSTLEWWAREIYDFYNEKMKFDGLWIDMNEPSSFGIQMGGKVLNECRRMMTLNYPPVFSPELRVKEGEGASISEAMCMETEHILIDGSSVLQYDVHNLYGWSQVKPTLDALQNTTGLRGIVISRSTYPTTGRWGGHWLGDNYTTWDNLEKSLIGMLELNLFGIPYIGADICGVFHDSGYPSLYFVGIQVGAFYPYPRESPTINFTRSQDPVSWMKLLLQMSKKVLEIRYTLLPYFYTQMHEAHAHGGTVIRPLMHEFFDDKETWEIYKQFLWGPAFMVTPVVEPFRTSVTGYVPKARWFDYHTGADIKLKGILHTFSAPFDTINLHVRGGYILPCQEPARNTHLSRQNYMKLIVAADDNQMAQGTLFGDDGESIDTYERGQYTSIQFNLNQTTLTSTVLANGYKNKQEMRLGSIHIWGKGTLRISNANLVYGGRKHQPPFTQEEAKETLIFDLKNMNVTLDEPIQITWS

`C[C@@H]1O[C@@H](O[C@H]2[C@H](O)[C@@H](O)[C@H](OC[C@H]3O[C@@H](OC(=O)[C@]45CCC(C)(C)C[C@H]4C4=CC[C@@H]6[C@@]7(C)CC[C@H](O[C@@H]8OC[C@H](O[C@@H]9O[C@H](CO)[C@@H](O)[C@H](O)[C@H]9O)[C@H](O)[C@H]8O[C@@H]8O[C@@H](C)[C@H](O)[C@@H](O[C@@H]9O[C@H](CO)[C@@H](O)[C@H](O)[C@H]9O)[C@H]8O)C(C)(C)[C@@H]7CC[C@@]6(C)[C@]4(C)CC5)[C@H](O)[C@@H](O)[C@@H]3O)O[C@@H]2CO)[C@H](O)[C@H](O)[C@H]1O` [CERNUOSIDE A] showed an IC50 of 59.5 µM.
In turn, `C[C@@H]1O[C@@H](O[C@H]2[C@H](O)[C@@H](O)[C@H](OC[C@H]3O[C@@H](OC(=O)[C@]45CCC(C)(C)C[C@H]4C4=CC[C@@H]6[C@@]7(C)CC[C@H](O[C@@H]8OC[C@H](O[C@@H]9O[C@H](CO)[C@@H](O)[C@H](O)[C@H]9O)[C@H](O)[C@H]8O[C@@H]8O[C@@H](C)[C@H](O)[C@@H](O[C@@H]9O[C@H](CO)[C@@H](O)[C@H](O)[C@H]9O)[C@H]8O)[C@@](C)(CO)[C@@H]7CC[C@@]6(C)[C@]4(C)CC5)[C@H](O)[C@@H](O)[C@@H]3O)O[C@@H]2CO)[C@H](O)[C@H](O)[C@H]1O` [CERNUOSIDE B] displayed an IC50 of 45.8 µM.

These data come from ChEMBL document CHEMBL1155682, “Cernuosides A and B, two sucrase inhibitors from Pulsatilla cernua” (J Nat Prod, 2000).
